Reference: patent US11999727B2 (Tango Therapeutics, Inc., priority 2020, dated 2024)
pIC50: −log10 of the molar value. Like-named read-outs stand apart in the source and are kept apart here.

Experiments:
[1] = biological target: T1, PRMT5 (Homo sapiens, UniProt O14744); assay: PRMT5 biochemical IC50 assay with SAM as cofactor; settings: PRMT5, SAM as cofactor; read-out: SAM IC50
T1 construct: purchased Viva (custom protein)

[2] = biological target: T1, PRMT5; assay: PRMT5 biochemical IC50 assay with no cofactor; settings: PRMT5, no cofactor; read-out: No Cofactor/ rel IC50
From the text: Table 1 indicates IC50 values (μM) against PRMT5 for exemplary compounds in the presence of SAM as cofactor, with no cofactor, and with MTA as cofactor, respectively (columns 4-6). […] Ki values can be calculated from the IC50 values as described in the Examples section. As detailed in the Examples section, for the assay performed in the presence of SAM, IC50=Ki×1.5 (Ki=IC50/1.5).

[3] = biological target: T1, PRMT5; assay: PRMT5 biochemical IC50 assay with MTA as cofactor; settings: PRMT5, MTA as cofactor; read-out: MTA IC50
[4] = test system: HAP1 MTAP-intact cell line; assay: SDMA in-cell western assay, HAP1 MTAP-intact; assay type: cell-based; settings: HAP1 MTAP-intact, read-out: MTAP HAP1 intact IC50
How it was run: (§1)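 Compounds were tested in HAP1 cells differing only in MTAP status (endogenous expression versus null). Cellular SDMA levels were then measured by in-cell western, giving an IC50 in each background.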

[5] = test system: HAP1 MTAP-deleted cell line; assay: SDMA in-cell western assay, HAP1 MTAP-deleted; assay type: cell-based; settings: for pIC50: Homo sapiens, HAP1, SDMA in-cell western, HAP1 MTAP-deleted, read-out: HAP 1 MTAP deleted IC50; for MTAP intact/deleted ratio: IC50 ratio HAP1 MTAP-intact / HAP1 MTAP-deleted, SDMA in-cell western
How it was run: as §1

[6] = test system: HAP1 MTAP-deleted cell line; assay: Viability assay, MTAP-deleted cell line; assay type: cell-based; settings: Homo sapiens, HAP1, viability, HAP1 MTAP-deleted cell line; read-out: HAP1 MTAP deleted viability
From the text: Table 1 additionally indicates IC50 values in a viability assay for the MTAP-deleted cell line (column 10), indicating the effect of treatment with compound on cell survival.

[7] = Homo sapiens, HAP1, SDMA in-cell western

T1 sequence (O14744 whole entry): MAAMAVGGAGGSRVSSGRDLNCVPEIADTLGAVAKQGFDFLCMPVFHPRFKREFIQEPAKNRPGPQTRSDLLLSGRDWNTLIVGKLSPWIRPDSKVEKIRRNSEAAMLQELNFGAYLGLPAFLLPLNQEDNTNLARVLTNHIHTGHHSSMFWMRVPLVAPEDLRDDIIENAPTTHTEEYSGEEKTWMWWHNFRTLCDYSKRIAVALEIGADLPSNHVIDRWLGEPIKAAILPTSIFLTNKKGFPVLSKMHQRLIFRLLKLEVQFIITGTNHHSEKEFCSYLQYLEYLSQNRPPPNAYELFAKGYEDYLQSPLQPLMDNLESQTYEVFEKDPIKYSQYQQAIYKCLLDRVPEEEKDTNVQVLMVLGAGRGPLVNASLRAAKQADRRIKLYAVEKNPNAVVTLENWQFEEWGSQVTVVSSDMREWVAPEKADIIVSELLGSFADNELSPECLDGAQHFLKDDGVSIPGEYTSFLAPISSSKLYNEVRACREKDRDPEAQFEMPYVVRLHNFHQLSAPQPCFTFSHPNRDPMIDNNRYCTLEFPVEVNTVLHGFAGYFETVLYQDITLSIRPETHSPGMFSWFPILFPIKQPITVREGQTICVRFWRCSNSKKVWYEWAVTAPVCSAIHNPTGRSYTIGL
T1 sequence (Q9BQA1 whole entry partner): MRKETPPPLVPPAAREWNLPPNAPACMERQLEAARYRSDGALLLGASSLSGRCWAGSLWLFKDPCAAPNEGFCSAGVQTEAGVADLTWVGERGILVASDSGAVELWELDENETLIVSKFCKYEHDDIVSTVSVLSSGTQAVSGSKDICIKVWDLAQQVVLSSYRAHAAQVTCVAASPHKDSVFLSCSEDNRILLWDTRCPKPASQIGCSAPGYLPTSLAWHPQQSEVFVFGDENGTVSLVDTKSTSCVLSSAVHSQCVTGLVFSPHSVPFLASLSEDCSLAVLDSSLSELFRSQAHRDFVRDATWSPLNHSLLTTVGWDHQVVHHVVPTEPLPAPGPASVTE

SMILES	pIC50 [1]	pIC50 [2]	pIC50 [3]	pIC50 [4, 7]	pIC50 [5]	pIC50 ([4]; SDMA in-cell western)	MTAP intact/deleted ratio [5]	pIC50 [6]
CCc1cc(NC(=O)C(=O)N2C[C@@H](C)CC[C@@H]2c2ccc3sc([C@@H]4CCN(C)C(=O)C4)nc3c2)cnc1N [Compound 1256, N-(6-amino-5-ethyl-3-pyridyl)-2-[(2R,5S)-5-methyl-2-[2-(1-methyl-2-oxo-4-piperidyl)-1,3-benzothiazol-5-yl]-1-piperidyl]-2-oxo-acetamide]	6.30 to 7.30	> 7.30	> 7.30	> 7.00	> 7.00		A (an IC50 ratio greater than or equal to 10 fold)	> 6.00
C[C@H]1CC[C@H](c2ccc3c(c2)CCN(C)C3)N(C(=O)C(=O)Nc2cnc(N)c(C3CC3)c2)C1 [Compound 1264, N-(6-Amino-5-cyclopropyl-3-pyridyl)-2-[(2R,5S)-5-methyl-2-(2-methyl-3,4-dihydro-1H-isoquinolin-6-yl)-1-piperidyl]-2-oxo-acetamide]	6.30 to 7.30	> 7.30	> 7.30	6.00 to 7.00	> 7.00		A (an IC50 ratio greater than or equal to 10 fold)	> 6.00
Cc1cc(NC(=O)C(=O)N2C[C@@H](C)CC[C@@H]2c2ccc3sc(C4COC4)nc3c2)cnc1N [Compound 1266, N-(6-amino-5-methylpyridin-3-yl)-2-((2R,5S)-5-methyl-2-(2-(oxetan-3-yl)benzo[d]thiazol-5-yl)piperidin-1-yl)-2-oxoacetamide]	6.30 to 7.30	> 7.30	> 7.30	> 7.00	> 7.00		A (an IC50 ratio greater than or equal to 10 fold)	> 6.00
CCc1cc(NC(=O)C(=O)N2C[C@@H](C)CC[C@@H]2c2ccc3sc(N4CCOCC4)nc3c2)cnc1N [Compound 1267, N-(6-amino-5-ethylpyridin-3-yl)-2-((2R,5S)-5-methyl-2-(2-morpholinobenzo[d]thiazol-5-yl)piperidin-1-yl)-2-oxoacetamide]	6.30 to 7.30	> 7.30	> 7.30	6.00 to 7.00	> 7.00		A (an IC50 ratio greater than or equal to 10 fold)	> 6.00
CCc1cc(NC(=O)C(=O)N2C[C@@H](C)CC[C@@H]2c2ccn3cc(C4CCN(C)CC4)nc3c2)cnc1N [Compound 1274, N-(6-amino-5-ethylpyridin-3-yl)-2-((2R,5S)-5-methyl-2-(2-(1-methylpiperidin-4-yl)imidazo[1,2-a]pyridin-7-yl)piperidin-1-yl)-2-oxoacetamide]	6.30 to 7.30	> 7.30	> 7.30	6.00 to 7.00	> 7.00		A (an IC50 ratio greater than or equal to 10 fold)	> 6.00
CCc1cc(NC(=O)C(=O)N2C[C@@H](C)CC[C@@H]2c2ccc3sc([C@H]4CN(C)CCO4)nc3c2)cnc1N [Compound 1275, N-(6-amino-5-ethylpyridin-3-yl)-2-((2R,5S)-5-methyl-2-(2-(4-methylmorpholin-2-yl)benzo[d]thiazol-5-yl)piperidin-1-yl)-2-oxoacetamide]	6.30 to 7.30	> 7.30	> 7.30		> 7.00	6.00 to 7.00	A (an IC50 ratio greater than or equal to 10 fold)	> 6.00
CCc1cc(NC(=O)C(=O)N2C[C@@H](C)CC[C@@H]2c2ccc3sc(C4CCCN4C)nc3c2)cnc1N (stereo partly drawn) [Compound 1282, N-(6-amino-5-ethylpyridin-3-yl)-2-((2R,5S)-5-methyl-2-(2-(1-methylpyrrolidin-2-yl)benzo[d]thiazol-5-yl)piperidin-1-yl)-2-oxoacetamide]	6.30 to 7.30	> 7.30	> 7.30	6.00 to 7.00	> 7.00		A (an IC50 ratio greater than or equal to 10 fold)	> 6.00
COc1ncc(NC(=O)C(=O)N2C[C@@H](C)CC[C@@H]2c2ccc3sc(CCN4CCCC4)nc3c2)cc1C(N)=O [Compound 1288, 2-methoxy-5-(2-((2R,53)-5-methyl-2-(2-(2-(pyrrolidin-1-yl)ethyl)benzo[d]thiazol-5-yl)piperidin-1-yl)-2-oxoacetamido)nicotinamide]	6.30 to 7.30	6.30 to 7.30	> 7.30	6.00 to 7.00	> 7.00		A (an IC50 ratio greater than or equal to 10 fold)	> 6.00
CCc1cc(NC(=O)C(=O)N2C[C@@H](C)CC[C@@H]2c2cccc(OC[C@@H](C)N(C)C)c2)cnc1N [Compound 1290, N-(6-amino-5-ethylpyridin-3-yl)-2-((2R,5S)-2-(3-(2-(dimethylamino)propoxy)phenyl)-5-methylpiperidin-1-yl)-2-oxoacetamide]	6.30 to 7.30	> 7.30	> 7.30	6.00 to 7.00	> 7.00		A (an IC50 ratio greater than or equal to 10 fold)	> 6.00

Further lines, with some results ahead:

pIC50 [1]	pIC50 [2]	pIC50 [3]	pIC50 [4, 7]	pIC50 [5]	pIC50 ([4]; SDMA in-cell western)	SMILES	MTAP intact/deleted ratio [5]	pIC50 [6]
6.30 to 7.30	> 7.30	> 7.30	> 7.00	> 7.00		CCc1cc(NC(=O)C(=O)N2C[C@@H](C)CC[C@@H]2c2ccc3sc(C4CCN(CC)CC4)nc3c2)cnc1N [Compound 1252, N-(6-amino-5-ethylpyridin-3-yl)-2-((2R,53)-2-(2-(1-ethylpiperidin-4-yl)benzo[d]thiazol-5-yl)-5-methylpiperidin-1-yl)-2-oxoacetamide]	A (an IC50 ratio greater than or equal to 10 fold)	> 6.00
> 7.30	> 7.30	> 7.30	6.00 to 7.00	> 7.00		COc1ncc(NC(=O)C(=O)N2C[C@@H](C)CC[C@@H]2c2ccc3sc(C4CN(C)C4)nc3c2)cc1C(N)=O [Compound 1257]	A (an IC50 ratio greater than or equal to 10 fold)	> 6.00
> 7.30	> 7.30	> 7.30	> 7.00	> 7.00		CCc1cc(NC(=O)C(=O)N2C[C@@H](C)CC[C@@H]2c2ccc3sc([C@H]4C[C@@H](C)N(C)[C@@H](C)C4)nc3c2)cnc1N [Compound 1261, N-(6-amino-5-ethylpyridin-3-yl)-2-((2R,5S)-5-methyl-2-(2-((2R,4r,6S)-1,2,6-trimethylpiperidin-4-yl)benzo[d]thiazol-5-yl)piperidin-1-yl)-2-oxoacetamide]	A (an IC50 ratio greater than or equal to 10 fold)	> 6.00
> 7.30	> 7.30	> 7.30	> 7.00	> 7.00		CCc1cc(NC(=O)C(=O)N2C[C@@H](C)CC[C@@H]2c2ccc3sc(CCCN(C)C)nc3c2)cnc1N [Compound 1262, N-(6-amino-5-ethylpyridin-3-yl)-2-((2R,5S)-2-(2-(3-(dimethylamino)propyl)benzo[d]thiazol-5-yl)-5-methylpiperidin-1-yl)-2-oxoacetamide]	A (an IC50 ratio greater than or equal to 10 fold)	> 6.00
> 7.30	> 7.30	> 7.30	6.00 to 7.00	> 7.00		Cc1cc(NC(=O)C(=O)N2C[C@@H](C)CC[C@@H]2c2ccc3sc(C4CCN(C5COC5)CC4)nc3c2)cnc1N [Compound 1268, N-(6-amino-5-methylpyridin-3-yl)-2-((2R,5S)-5-methyl-2-(2-(1-(oxetan-3-yl)piperidin-4-yl)benzo[d]thiazol-5-yl)piperidin-1-yl)-2-oxoacetamide]	A (an IC50 ratio greater than or equal to 10 fold)	> 6.00
> 7.30	> 7.30	> 7.30	6.00 to 7.00	> 7.00		CCc1cc(NC(=O)C(=O)N2C[C@@H](C)CC[C@@H]2c2ccc(N3CCC(CN4CCCC4)CC3)cc2)cnc1N [Compound 1276, N-(6-Amino-5-ethylpyridin-3-yl)-2-[(2R,5S)-5-methyl-2-(4-{4-[(pyrrolidin-1-yl)methyl]piperidin-1-yl}phenyl)piperidin-1-yl]-2-oxoacetamide]	A (an IC50 ratio greater than or equal to 10 fold)	> 6.00
> 7.30	> 7.30	> 7.30	> 7.00	> 7.00		CCc1cc(NC(=O)C(=O)N2C[C@@H](C)CC[C@@H]2c2ccc3sc(C4CC5(C4)CN(C)C5)nc3c2)cnc1N [Compound 1283, N-(6-amino-5-ethylpyridin-3-yl)-2-((2R,5S)-5-methyl-2-(2-(2-methyl-2-azaspiro[3.3]heptan-6-yl)benzo[d]thiazol-5-yl)piperidin-1-yl)-2-oxoacetamide]	A (an IC50 ratio greater than or equal to 10 fold)	> 6.00
